In a melting point compilation (Tetko et al.; mined from patent text by program, amines drawn as free bases though some values may be those of a salt) one finds melting point data, which are given here for 90 compounds.

Usually melting point stands for the temperature, or range, at which the solid turns liquid.

Structures are written as SMILES.

`CC(=O)Nc1cnn2c1-c1ccccc1NC2(C)C`: the melting point lay within 228 to 230 °C.
For `CCOC(=O)C1C=Nc2c(ccc3cc(C(=O)N(C)Cc4ccc(F)cc4)cnc23)C1=O` (stereo not given) the value was 206 to 207 °C.
As to `O=C(O)c1cc(F)cc(C(F)(F)F)c1O`, the melting point was in the range of 76 to 83 °C.
The same measure for `COc1c(OC)c(OC)c2c(=O)cc(-c3ccc(OCc4ccccc4)cc3)oc2c1OC`: 132 to 134 °C; for `O=C(Nc1cccc2c(=O)cc[nH]c12)c1c(Cl)cccc1Cl`: 342 °C; for `COc1cccc(-c2cnc3[nH]cc(C(=O)C4(C)CCCCC4)c3n2)c1`: 173 to 175 °C.
In the case of `CCN(CC)C(=O)n1ccc(S(=O)(=O)c2ccc(Br)cc2C(F)(F)F)n1`, the melting point was 62 to 65 °C.
For `Nc1cc(C(F)(F)F)nc(C(F)(F)F)c1` the value was 147 to 149 °C; for `COc1ccc2c(c1)C(=O)N(c1ccc3cccnc3c1)C2`, 220 to 223 °C.
The same measure for `COc1ccc2c(-c3ccccc3)nc(=NO)c(=O)n(C)c2c1`: 206 to 207 °C; for `O=C1c2ccccc2C(=O)N1CCCCn1cnc(-c2ccc([N+](=O)[O-])cc2)c1`: 170 to 172 °C.
For `Cc1nc(Nc2ccc(F)cc2)nc(N2CCc3ccccc3C2CO)c1C` (stereo not given) the value was 198 to 200 °C.
As to `COCCn1nc2c(N)nc3ccccc3c2c1CC(C)(C)C(N)=O`, the melting point lay within 225 to 226 °C.
In turn, `CC12CCC3C(CCC4CC(=O)CCC43C)C1CCC2C#N` (stereo not given) registered a melting point of 150 to 152 °C.
With `CN(c1ccoc1)c1n[nH]c2ncnc(Nc3cccc(Cl)c3)c12`, the melting point was 207 to 209 °C.
The same measure for `COc1c(OC)c(OC)c2c(=O)cc(-c3ccc(O)cc3)oc2c1OC`: 187 to 188 °C.
The same measure for `CNC(=O)Oc1ccc(N=C(C)c2ccccc2O)c(C)c1`: 133 to 138 °C; for `CC1CN(c2cccc(C(F)(F)F)c2)N=C1NC(=O)C(F)(F)F` (stereo not given): 121 to 122 °C; for `c1ccc(CN(Cc2ccccc2)c2c(-c3ccccc3)sc3ccccc23)cc1`: 92 to 93 °C.
Compound `CN1CCC2(CC1)CN(c1ccccc1)c1ccccc12` displayed a melting point of 90 to 92 °C.
The same measure for `CCOC(=O)c1cnc(Nc2ccccc2OCC(C)C)[nH]c1=O`: 175 to 177 °C; for `CCOc1nsnc1S(C)(=O)=O`: 94 to 95 °C; for `CC(C)(C)S(=O)(=O)N1C[C@H](O)C[C@@H]1c1cc(F)cc(C#N)c1`: 93 to 96 °C.
For `CC1=C(O)C(=O)C(C)(CC2(O)C=CC=CC2)O1` (stereo not given) the value was 122 to 124 °C.
For `COC(=O)NNC(=S)Cc1ccccc1` the value was 93.5 to 94 °C.
In the case of `CCNc1ncn(Cc2ccc(OC)c(OC3CCCC3)c2)c2nc(C(C)C)nc1-2`, the melting point was in the range of 205 to 207 °C.
For `C[Si](C)(C)OC1(C#N)CCOc2c(Cl)cc(Cl)cc21` (stereo not given) the value was 77 to 79 °C; for `COc1ccc2c3c(cn2S(=O)(=O)c2ccc(C)cc2)CC(NC(=O)C(F)(F)F)C(=O)c13` (stereo not given), 189 to 190 °C.
The same measure for `COc1cc(Cl)c(C(=O)c2ccc([N+](=O)[O-])cc2)c(Cl)c1`: 147 to 150 °C; for `CCOC(=O)c1c(SC)nn(-c2c(Cl)cc(Cl)cc2Cl)c1C`: 95 to 98 °C; for `CCOCCc1ccc(OCCNc2ncnc(C)c2Cl)c(C)c1`: 57 to 58 °C.
`Cc1cn(S(C)(=O)=O)c2c1C(=O)CC(c1ccccc1F)C2` (stereo not given) displayed a melting point of 130 to 134 °C.
`CC1CN(Cc2ccccc2)Cc2c(C=O)c(-c3ccccc3)n(Cc3ccccc3)c21` (stereo not given) gave a melting point of 120 to 121 °C.
The same measure for `CCc1nn(CCO)c(CC)c1Oc1cc(C#N)cc(-n2cncn2)c1`: 122 to 124 °C.
The same measure for `O=C(C=Cc1ccc(S(=O)(=O)Nc2ccccc2)cc1)NO`: 176 to 178 °C; for `CCOCCn1c(COc2ccc(CO)cc2)nc2ccccc21`: 90 to 92 °C.
Take `CCN(CC)Cc1nc2cc(OC)c(OC)cc2c(-c2ccc(OC)c(OC)c2)c1Cl`: the melting point fell in the range of 146 to 148 °C.
For `c1ccc(COc2ccc(-c3nc(COc4cccc(CCCn5ccnc5)c4)co3)cc2)cc1` the value was 144 to 145 °C.
Take `N#Cc1ccc(Oc2cc(F)cc(F)c2)c([N+](=O)[O-])c1`: the melting point is 132 to 136 °C.
For `CCOC(=O)Nc1csc2cc(OC)ccc12` the value was 88 °C; for `CCSCCNC(=O)Nc1ccccc1CCc1cc(C(C)(C)C)c(O)c(C(C)(C)C)c1`, 131 to 132 °C; for `CC(C)C[C@H](NC(=O)[C@H](Cc1c[nH]cn1)NC(=O)[C@H](Cc1cccc2ccccc12)NC(=O)OCc1ccccc1)[C@@H](O)CCO`, 196 to 198 °C.
The same measure for `CC(=O)NCCc1ccc(CN2CCN(c3ccccc3)CC2)cc1`: 117 to 118 °C; for `Cc1cc(I)cc2c(=O)[nH]oc12`: 232 to 233 °C; for `CC(=O)c1c[nH]cc1-c1cccc(Cl)c1Cl`: 192 to 194 °C.
`COc1ccc(Sc2nc(C)c(CC(=O)O)s2)nn1` registered a melting point of 143 to 144 °C.
In the case of `CCOC(=O)c1cn(-c2ccc(F)cc2F)c2nc(O)c(F)cc2c1=O`, the melting point fell in the range of 243 to 248 °C.
For the compound `COc1ccc(-c2cc3cc(OC)cc(C=NO)c3o2)cc1`, the melting point was in the range of 185 to 187 °C.
Compound `O=C1CCc2cc(Cl)cc(Cl)c21` returned a melting point of 119 to 120 °C.
For the compound `O=C(O)Cc1nn(C/C=C/c2cccc(C(F)(F)F)c2F)c(=O)c2ccccc12`, the melting point was in the range of 170 to 172 °C.
For `CCCCCCCCCCCCCCCCCCNS(N)(=O)=O` the value was 105 to 107 °C.
In turn, `Cc1ccccc1C(=O)Nc1ccc(-n2nc(C3CC3)cc2C2CC2)cc1` gave a melting point of 128 to 130 °C.
The compound `CC(C)(C)N1C(O)c2cccc(Cl)c2S1(=O)=O` (stereo not given) yielded a melting point of 139 to 141 °C.
With `COc1ccc(-c2nnc3c4ccccc4c(Nc4cccc(-c5nnn(C)n5)c4)nn23)cc1`, the melting point fell in the range of 256 to 259 °C.
For `COc1ccc(C(C)C)cc1-c1cc(-c2nnnn2C2CCN(C(=O)OC(C)(C)C)CC2)c(OCc2ccccc2)cc1OCc1ccccc1` the value was 77 to 81 °C; for `CC(C)(C)CN1c2ccccc2C(C)(C)C12C=Nc1c(ccc3ccccc13)O2` (stereo not given), 167 to 170 °C.
Take `O=C(O)COc1ccc(C2=CC(=O)CCC2)c(Cl)c1Cl`: the melting point fell in the range of 197 to 198 °C.
For `COC(=O)c1ccc2c(c1)Sc1ccc(F)cc1C(=O)C2` the value was 129 to 131 °C.
Consider `CCCC1=CC(NC)=Nc2ccc(Cl)cc2C(c2ccccc2)=[N+]1[O-]`, for which the melting point is 104 to 106 °C.
In the case of `Nc1nc2cccnc2c2c1nc(O)n2Cc1ccccc1`, the melting point is > 250 °C.
For `Cc1cc(C#N)cc(C(=O)Nc2cccc(C(F)(F)F)c2)n1` the value was 167 °C.
For `COc1ccc(N2CCN(c3c(C)c(C)c4c(c3C)C(OCc3ccc(C(=O)O)cc3)C(C)(C)O4)CC2)cc1` (stereo not given) the value was 162 to 163 °C; for `COc1ccc(C(=O)Nc2cccc3[nH]ccc23)c(O)c1`, 190 °C.
The same measure for `CCCCCCCCCCCC(=O)NC(C)c1c[nH]c(CCCCCCCCCCC)n1` (stereo not given): 56 to 59 °C; for `Cc1cc(C)c2ncc(NC(=O)C=Cc3ccc(O)cc3)c(-c3ccccc3Cl)c2c1`: 228 to 230 °C.
In the case of `O=C1CCNc2cc(Cl)c(F)cc21`, the melting point was 192 to 194 °C.
The same measure for `CC(=O)OC1N=C(c2ccccc2)c2cc(Cl)ccc2-n2c1cnc2C` (stereo not given): 200 to 201 °C; for `CC(C(N)=O)c1cccc2c1Oc1ccccc1CC2=O` (stereo not given): 177 to 178 °C; for `COc1ccc(Sc2nc(C)n(Cc3cc4c(cc3Cl)OCO4)c2C(=O)O)cc1`: 200 to 210 °C.
Take `O=c1[nH]c(=O)n(C2CC(F)C(CCl)O2)cc1C=CBr` (stereo not given): the melting point worked out at 203 °C.
For `COc1ccncc1C#N` the value was 124 to 126 °C; for `CC(=S)NC[C@H]1CN(c2ccc(N3CCN(c4nnc(C)s4)CC3)c(F)c2)C(=O)O1`, 222 to 223 °C; for `O=C1c2ccccc2C(=O)N1CCCSc1ncccn1`, 81.5 to 82.5 °C.
The compound `Cn1cc(C2=C(c3ccccc3)C(=O)NC2=O)c2ccccc21` showed a melting point of 230 to 232 °C.
The compound `Cc1ccnc(NC(=O)c2ccn3c2CSC3c2cccnc2)c1` (stereo not given) came in with a melting point of 163 °C.
The same measure for `CCCCCCCCCCCCCCCCCCOc1cc(OCCCOc2ccccc2)cc(C(=O)OCc2ccccc2)c1`: 46 to 47 °C.
`CC(C)(C)OC(=O)N1CCOc2ccccc21` showed a melting point of 78 to 79 °C.
`CNC(=O)CNC(=O)c1ccc(C)c(-n2c(C)cc(OCc3ccccc3CNC(=O)Nc3cc(C(C)(C)C)nn3-c3ccc(Cl)c(O)c3)c(Cl)c2=O)c1` showed a melting point of 179 to 181 °C.
The same measure for `Nc1ccc(Sc2ccccc2)cc1Br`: 61 to 63 °C; for `N#Cc1cc([N+](=O)[O-])ccc1N1CCC(NCCO)CC1`: 115 °C; for `O=C(O)c1csc(Oc2cccc(Cl)c2)n1`: 135 to 137 °C.
Regarding `CCCC[C@H](NC(=O)[C@H](CC(C)C)NC(=O)c1coc2ccccc12)C(=O)CSCc1ccco1`, the melting point is 113 to 116 °C.
For `CC1NC(=O)NN=C1c1ccc(N2CCCC2)cc1` (stereo not given) the value was 276 to 281 °C.
For `Cc1c(C)c2c(c(C)c1O)C(c1ccc(C(C)C)cc1)C1(CCN(C)CC1)O2` (stereo not given) the value was 114 to 117 °C; for `NC(=O)C1CN(Cc2ccccc2)CCN1CCCC(c1ccc(F)cc1)c1ccc(F)cc1` (stereo not given), 79.2 °C.
The same measure for `OC(COc1ccc2nncn2n1)CN1CCN(C(c2ccccc2)c2ccccc2)CC1` (stereo not given): 95 to 97 °C; for `CC(=O)NCc1ccc2ccn(C3CCN(CCc4ccc(Cl)cc4)CC3)c2c1`: 148 to 149 °C.
For `O=c1cc(-c2ccc(Cl)cc2)sc(N2CCOCC2)c1`, the melting point fell in the range of 202 to 204 °C.
Regarding `CCCCCCCCCCCCCCOc1cccc(C(=O)N(CC(=O)OC)CC(=O)OC)c1`, the melting point is < 23 °C.
For the compound `CCOC=C(C=O)c1ccc(Br)cc1`, the melting point was in the range of 152 to 156 °C.
